Measurements as given in patent EP0062319A1, “3-Methyl-1-(2-(3-naphthyloxy)-ethyl)-2-pyrazolin-5-one for the treatment of the metastasis and growth of tumour cells” (BAYER AG, priority 1981, dated 1982).

How the values were obtained:
Metastase = settings: literature, cited from earlier work
B-16a-Melanom-Zellen = settings: literature; metastasis induced by intravenous B-16a melanoma cells; cited from earlier work
Lewis-Lungen-Karzinom = experiment: Tumour incidence and final tumour weight of subcutaneous Lewis lung carcinoma in mice; assay type: in vivo, C57BL/6J Mäuse; settings: killed day 22
Excerpt: Die antineoplastische Wirksamkeit wurde außerdem durch direkte Messung des Wachstums der Tumorzellen in vitro in Gewebekulturen bestimmt. Diese Methode bedient sich des "Plating" oder Aufimpfens einer bekannten Anzahl von Tumorzellen auf ein Wachstumsmedium und der Bestimmung der Wirkung der Anwesenheit der zu prüfenden Verbindung auf die Tumorzellen-Proliferation. Schließlich wurde die antineoplastische Aktivität in vivo in der Weise bestimmt, daß den Mäusen subkutan Tumorzellen injiziert wurden und das Auftreten von Tumorzellenwachstum sowie das Gewicht der wachsenden Tumorzellen in unbehandelten Kontrolltieren und in mit der Pyrazolon-Verbindung behandelten Tieren bestimmt wurden.
3 mg 3-Methyl-1-[2-(2-naphthyloxy)-ethyl]-2-pyrazolin-5-on wurden in 0,6 ml Ethylalkohol gelöst, und die Lösung wurde mit konzentrierter Natronlauge auf einen pH von 9,5 eingestellt.
Syngeneischen C57BL/6J Wirts-Mäusen wurden 1 x 10^5 Lewis-Lungenkarzinom-Zellen (0,2 ml) subkutan in die Achselhöhlenregion injiziert. Nach einem Zeitraum von 24 Stunden wurde die Pyrazolon-Verbindung 21 Tage lang täglich verabreicht. Die Wirkung der Verabreichung von Theophyllin zusammen mit der Pyrazolon-Verbindung wurde ebenfalls untersucht. Während des Zeitraums wurden die Mäuse unter identischen Bedingungen der Temperatur, Lichteinwirkungsdauer, Ernährung etc. gehalten. Die Mäuse wurden 22 Tage nach der Injektion der Tumorzellen getötet und mittels einer Gesamt-Nekropsie auf die Anwesenheit subkutaner Tumoren untersucht. Vorhandene Tumoren wurden entfernt und auf einer Analysenwaage gewogen.

[1] = tested on: B-16a-amelanotischen Melanom-Zellen; experiment: Metastasis of tail-vein injected B-16a melanoma cells (lung tumour colonies) in mice; assay type: in vivo, C57BL/6J Mäuse; settings: Theophyllin 200 µg injected 1 h before the tumour cells; 5 x 10^4 cells i.v.; mean ± SEM, n = 6
Excerpt: Wie bereits weiter oben festgestellt wurde, ist die Metastase […], die durch eine Reihe komplizierter Vorgänge dargestellt wird. Gegenwärtig finden zwei "Modell"-Systeme für die Untersuchung der in vivo-Metastase verbreitete Anwendung. Das erste Modellsystem umfaßt die subkutane Injektion der Tumorzellen in das Tier. Die subkutane Injektion der Tumorzellen und anschließende Entwicklung eines Primärtumors, gefolgt von spontaner Metastase, wird als "volle" Metastase betrachtet. Ein anderes Modellsystem umfaßt die Injektion der Tumorzellen durch die Schwanzvene. In Anbetracht der Komplexität der Metastase gilt die Schwanzvenen-Injektion als künstliches und nur partielles Modellsystem, da es nur die Vorgänge während des letzteren Teils der Metastase wiedergibt. Das Schwanzvenen-Modellsystem gilt jedoch auch als außerordentlich günstig im Hinblick auf eine Standardisierung der Versuchsbedingungen [vgl."Methods in Cancer Research", Kapitel VII, Academic Press, Inc., 1978].
Als Kontrolltiere wurden (unbehandelte) C57B1/6J-Mäuse nach folgender Arbeitsweise auf volle Metastase untersucht. Zellsuspensionen der B-16 - und 3LL-Karzinom-Zellen, die wie oben unter A und B beschrieben erhalten worden waren, wurden subkutan in die rechte Achselhöhlenregion der männlichen C57BL/6J-Mäuse injiziert (0,66 mm- = 26 gauge -Nadel; 0,2 ml). Injiziert wurden verschiedene Mengen der Zellsuspensionen im Bereich von 1 x 10^5 bis 1 x 10^6 Zellen. Versuche zur partiellen Metastase wurden in der Weise durchgeführt, daß Tumorzellen über die Schwanzvene in die (unbehandelten) Kontroll-Mäuse injiziert wurden. Die Tiere wurden unter identischen Bedingungen der Temperatur, Lichteinwirkungsdauer, Ernährung etc. gehalten. Nach einem Beobachtungszeitraum von 17 bis 30 Tagen wurden die für die volle Metastase und für die partielle Metastase verwendeten Tiere getötet, und die Lungen, Leber, Nieren, Milz und Gehirn-Gewebe wurde entnommen.
Das entnommene Gewebe wurde in Bouin-Lösung fixiert.
Die Zahl der metastatischen Knötchen in jedem Organ wurde mit Hilfe eines Bausch-und-Lomb Stereo-Zoom-Mikroskops bestimmt. Die Untersuchung der Kontroll- Mäuse auf metastatische Knötchen ergab bei 100 % der Tiere positive Befunde in bezug auf metastatische Lungentumoren; die Inkubationszeit für die Erzeugung solcher Metastasen betrug für die 3LL-Tumorzellen 17 bis 21 Tage und für die B-16 a -Tumorzellen 23 bis 30 Tage. In Leber, Nieren, Milz oder Gehirn-Gewebe wurden keine sichtbaren Knötchen beobachtet.
3 mg 3-Methyl-1-[2-(2-naphthyloxy)-ethyl]-2-pyrazolin-5-on wurden in 0,6 ml absolutem Ethylalkohol suspendiert. Das suspendierte Pyrazolon wurde durch Einstellen des pH auf 9,5 mit NaOH gelöst. […]

## CC(=O)Oc1ccccc1C(=O)O [Aspirin]
Metastase
  Metastase: gemischte Ergebnisse

## CCCCC[C@H](O)/C=C/[C@@H]1[C@H]2C/C(=C/CCCC(=O)O)O[C@H]2C[C@H]1O [Prostacyclin]
B-16a-Melanom-Zellen
  Metastase: verhindert werden kann

## Cn1c(=O)c2[nH]cnc2n(C)c1=O [Theophyllin, reference compound]
Lewis-Lungen-Karzinom; 250 µg Theophyllin daily i.p. in 0,4 ml
  Tumor-Häufigkeit Anzahl: 9/12
Lewis-Lungen-Karzinom; 250 µg Theophyllin daily i.p.
  Tumor-Häufigkeit %: 75%
Lewis-Lungen-Karzinom; final tumour weight, 250 µg Theophyllin daily i.p.
  Gewicht: 1.58 ± 0.42 mg
[1]
  Lungen-Tumor-Kolonien: 165 ± 38

## CC(=O)CC(c1ccccc1)c1c(O)c2ccccc2oc1=O (stereo not shown) [Warfarin]
Metastase; after intravenous injection of tumour cells and in spontaneously metastasising tumours
  antimetastatische Wirkungen: signifikante antimetastatische Wirkungen
